Experimental data: patent US20210009549A1, “CANNABINOID DERIVATIVES AND CONJUGATES AND USES THEREOF” ([…] LTD., priority 2018, published 2021)

What was measured:
human α1 GlyR = target: T1, human α1 GlyR (Homo sapiens, UniProt P23415); assay: Whole-cell patch clamp, modulation of α1 GlyR-regulated ion channel currents; format: cell-based; conditions: HEK293 cells stably expressing human α1 GlyR; EC2 glycine (1 μM); holding potential −40 mV; room temperature
T1 construct: expressed in transfected cells
T1 sequence (P23415 29-457): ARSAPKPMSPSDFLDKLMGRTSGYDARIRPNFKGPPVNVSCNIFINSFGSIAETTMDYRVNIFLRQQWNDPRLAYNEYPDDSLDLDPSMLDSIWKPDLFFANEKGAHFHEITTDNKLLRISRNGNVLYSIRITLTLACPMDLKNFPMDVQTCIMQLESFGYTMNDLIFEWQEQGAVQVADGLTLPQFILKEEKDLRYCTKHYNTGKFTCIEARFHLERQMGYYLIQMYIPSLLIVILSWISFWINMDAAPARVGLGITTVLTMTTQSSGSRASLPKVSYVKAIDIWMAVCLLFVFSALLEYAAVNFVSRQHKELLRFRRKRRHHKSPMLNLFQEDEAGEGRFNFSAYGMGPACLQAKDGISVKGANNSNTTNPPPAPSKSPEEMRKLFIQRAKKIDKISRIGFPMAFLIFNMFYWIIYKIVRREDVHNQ
Experimental: (§1) Currents were recorded by whole-cell patch clamp on HEK293 cells that stably expressed either the human α1 or α3 GlyRs. Cells were cultured on glass coverslips and placed into the recording chamber which was perfused by the standard extracellular solution containing (in mM): 140 NaCl, 5 KCl, 2 CaCl2), 1 MgCl2, 10 HEPES/NaOH and 10 glucose (pH 7.4 adjusted with NaOH). For HEK293 cell recordings we employed an intracellular solution consisting of (mM): 145 CsCl, 2 CaCl2), 2 MgCl2, 10 HEPES and 10 EGTA (pH 7.4 adjusted with CsOH; osmolarity 290 mOsm). HEK293 cell recordings were performed at a holding potential of −40 mV. Solutions were applied to cells via gravity induced perfusion via parallel microtubules under micromanipulator control with a solution exchange time of <250 ms. Experiments were conducted at room temperature (20-22° C.). Due to the irreversible nature of the drug actions, only one cell was tested per coverslip.
(§2) Patch pipettes were fabricated from borosilicate hematocrit tubing (Hirschmann Laborgerate, Eberstadt, Germany) and heat polished. Pipettes had tip resistances of […]. Membrane currents were recorded using an Axopatch 200B amplifier and a Digidata 1440 analog-to-digital converter under control of pClamp10 software (Molecular Devices). Currents were filtered at 500 Hz and digitized at 2 KHz.
(§3) After a stable whole cell recording was obtained, EC2 and saturating glycine concentrations activated currents with the anticipated magnitudes were verified. At al and α3 GlyRs, EC2 current magnitudes generally required glycine concentrations of 1 and 80 μM, respectively. The saturating concentration was invariably 2 mM. The standard experimental protocol involved EC2 glycine application for […] every 1 minute. When glycine was not being applied, the cells were continually and directly exposed to flowing drug solution. After 5 minutes of alternate applications of drug and EC2 glycine, 2 mM glycine was briefly applied every 2 minutes. Regular applications of saturating glycine after the 5 minute time point tended to enhance the drug-induced current magnitude effect further.
(§4) The effects of cannabinoid derivatives on al GlyR and α3 GlyR-regulated ion channel currents, as assessed by the patch clamp method, are indicated in Table 6.

[1] = rodents; systemic and intrathecal administration; cited from earlier work
human α3 GlyR = target: T2, human α3 GlyR (Homo sapiens, UniProt O75311); assay: Whole-cell patch clamp, modulation of α3 GlyR-regulated ion channel currents; format: cell-based; conditions: for A3 GlyR (fold increase): HEK293 cells stably expressing human α3 GlyR, EC2 glycine (80 μM), holding potential −40 mV, room temperature
T2 construct: expressed in transfected cells
T2 sequence (O75311 34-464): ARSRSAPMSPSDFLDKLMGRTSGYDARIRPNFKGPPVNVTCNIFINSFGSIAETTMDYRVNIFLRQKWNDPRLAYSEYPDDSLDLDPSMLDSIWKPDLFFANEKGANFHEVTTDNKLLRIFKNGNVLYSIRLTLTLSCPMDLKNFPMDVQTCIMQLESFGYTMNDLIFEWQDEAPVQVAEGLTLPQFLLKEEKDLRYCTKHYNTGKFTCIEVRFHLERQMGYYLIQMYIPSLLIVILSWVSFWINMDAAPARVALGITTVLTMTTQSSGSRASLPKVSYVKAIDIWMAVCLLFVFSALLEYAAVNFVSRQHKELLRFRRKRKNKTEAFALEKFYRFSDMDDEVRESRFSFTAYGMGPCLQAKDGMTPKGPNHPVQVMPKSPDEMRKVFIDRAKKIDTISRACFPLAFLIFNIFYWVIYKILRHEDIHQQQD
Experimental: as §1, §2, §3, §4

hippocampal neurons = conditions: cited from earlier work
presynaptic GlyR = conditions: brainstem and spinal cord of hyperekplexic mutant mice; cited from earlier work

Molecule	α1 GlyR (fold increase) (human α1 GlyR)	A3 GlyR (fold increase) (human α3 GlyR)	other results
7-OH-Desoxy-CBD [Compound 119]	no effect	–	–
C=C(C)[C@@H]1CCC(C)=C[C@H]1c1c(O)cc(CCCCC)cc1O [CBD, cannabidiol]	–	–	Analgesic tolerance [1]: without causing apparent analgesic tolerance; Suppression of chronic inflammatory and neuropathic pain [1]: significantly suppresses chronic inflammatory and neuropathic pain
C=C(C)C1CCC(C)=CC1c1ccc(C(C)(C)CCCCCC)cc1O (stereo not drawn) [Compound 101, 1,1-dimethylheptyl desoxy CBD]	13 fold	5 fold	–
C=C(C)C1CCC(C)=CC1c1ccc(C(C)C(C)CCCCC)cc1O (stereo not drawn) [Compound 102, 1,2-dimethylheptyl-desoxy CBD]	no effect	18 fold	Selectivity α3 GlyR versus α1 GlyR (human α3 GlyR; comparison of patch clamp effects on α1 and α3 GlyR): highly selective towards α3 GlyR
C=C(C)C1CCC(C)=CC1c1ccc(C(C)(C)CCC)cc1O (stereo not drawn) [Compound 103, 1,1-dimethylbutyl desoxy CBD]	4 fold	10 fold	–
CCCCCCC(C)(C)c1ccc2c(c1)OC(C)(C)C1CCC(C)=CC21 (stereo not drawn) [Compound 148, 1,1-DMH-desoxy THC]	4.2 fold	4 fold	–
C=C(C)[C@@H]1CCC(C)=C[C@H]1c1c(O)cc(CC2CN(C(C)=O)C2)cc1O [KLS-13019]	–	–	Potency relative to CBD (hippocampal neurons; more potent than CBD): 50 fold; Safety relative to CBD (hippocampal neurons; safer than CBD): > 400 fold
C=C(C)[C@@H]1CCC(C)=C[C@H]1c1ccc(CCCCC)cc1O [desoxy-CBD, dehydroxylcannabidiol]	26.7 fold	4.6 fold	Analgesic tolerance [1]: without causing apparent analgesic tolerance; Suppression of chronic inflammatory and neuropathic pain [1]: significantly suppresses chronic inflammatory and neuropathic pain; Rescue of impaired presynaptic GlyR activity and diminished glycine release (presynaptic GlyR): selectively rescues impaired presynaptic GlyR activity and diminished glycine release
CCCCCc1ccc2c(c1)OC(C)(C)C1CCC(C)=CC21 (stereo not drawn) [desoxy-THC]	11.2 fold	4.7 fold	–
